# Results: US20180022780A1, “STABILIZATION ADRENOMEDULLIN DERIVATIVES AND USE THEREOF” (priority 2014, published 2018)
# Numbered stars: 1 amine (or outer) side, 2 acyl side, 3 side chain; on linkers, the order of the positions; unused ones are H or OH. Bridge positions count the residues as written; N and C are the ends. Square brackets hold non-standard residues; d marks the D form. Peptide text beside a SMILES is read from it. * marks the point of attachment. Abu(4-yl) = O=C([C@H](CC[*:3])N[*:1])[*:2]; Palmitoyl = CCCCCCCCCCCCCCCC(=O)*; Orn = NCCC[C@H](N)C(=O)O; Dap = NC[C@H](N)C(=O)O
# Target: T1, CLR fused to EYFP and RAMP2 fused to ECFP (Homo sapiens, UniProt O60895+Q16602)
# T1 construct: EYFP; ECFP; expressed in transfected cells; host or cells: HEK-293 cells, transient co-transfection
# Assay: cAMP assay (CRE luciferase reporter, HEK-293 cells transiently co-transfected with CLR and RAMP2)
# Type: cell-based
# Conditions: Table 2, cAMP assay; HEK-293, CLR/RAMP2, CRE luciferase, 3 h stimulation, normalized to [G^14]ADM(14-52)
# Experimental: HEK-293 cells (human embryonic kidney cells) were cultured in Ham's F-12/DMEM (1/1; v/v) containing 15% FCS under humidified atmosphere at 37° C. and 5% CO2 in 75 cm^2 cell culture flasks.
# Cells were cultured in 75 cm^2 flasks to 70-80% confluency. 45 μl Metafectene® Pro was diluted in 900 μl Ham's F-12/DMEM (1/1; v/v) and incubated for 20 min at room temperature. 9000 ng plasmid containing DNA of CLR fused to EYFP and 3000 ng plasmid containing DNA of RAMP2 fused to ECFP were dissolved in 900 μl Ham's F-12/DMEM (1/1; v/v). The plasmid solution was mixed with the Metafectene® Pro solution and incubated for 25 min at room temperature. Medium was removed from the cells and replaced by 6 ml Ham's F-12/DMEM (1/1; v/v) containing 15% FCS. After addition of transfection solution the cells were incubated for 3 h under humidified atmosphere at 37° C. and 5% CO2.
# For the second transfection 45 μl Metafectene® Pro was diluted in 900 μl Ham's F-12/DMEM (1/1; v/v) and incubated for 20 min at room temperature. 12000 ng of pGL4.29[luc2P/CRE/Hygro] plasmid containing DNA for the luciferase reporter gene luc2P (with CRE promotor region) were dissolved in 900 μl Ham's F-12/DMEM (1/1; v/v). The plasmid solution was mixed with the Metafectene® Pro solution and incubated for 25 min at room temperature. Medium was removed from the cells and replaced by 6 ml Ham's F-12/DMEM (1/1; v/v) containing 15% FCS. After addition of transfection solution the cells were incubated under humidified atmosphere at 37° C. and 5% CO2 over night.
# For the coating of 96-well-plates 50 μl of a Poly-D-Lysine solution (1 ml stock solution of Poly-D-Lysin-hydrobromid/10 ml DPBS) were pipetted in each well and incubated for 40 min. After removal of the Poly-D-Lysine each well was washed with 50 μl DPBS. Transiently transfected cells were detached from the cell culture flask by removal of the medium, twofold washing with 5 m1 DPBS and resuspending in 13 ml Ham's F-12/DMEM (1/1; v/v) containing 15% FCS. 90000 to 120000 cells in 150 μl Ham's F-12/DMEM (1/1; v/v) containing 15% FCS were seeded per well and the plates were incubated under humidified atmosphere at 37° C. and 5% CO2 over night.
# For each ligand a serial dilution giving eight different concentrations was prepared using Ham's F-12/DMEM (1/1; v/v). Before stimulation the medium on the cells was replaced by 100 μl Ham's F-12/DMEM (1/1; v/v) and the plates were incubated for 1 h under humidified atmosphere at 37° C. and 5% CO2. For stimulation the medium was removed again and the cells were incubated for 3 h in 80 μl of ligand-solution under humidified atmosphere at 37° C. and 5% CO2. In addition 80 μl of a 5 μM forskolin solution (in Ham's F-12/DMEM (1/1; v/v)) was used as a positive control and 80 μl of Ham's F-12/DMEM (1/1; v/v) as a negative control. Each concentration and the controls were tested as triplicates.
# After 3 h of stimulation, the solutions were removed and the cells were washed with 50 μl of Ham's F-12/DMEM (1/1; v/v) per well. After 10 min incubation in 30 μl of Ham's F-12/DMEM (1/1; v/v) at room temperature, 30 μl of luciferase-solution (ONE-Glo™ Luciferase Assay System) was added and the luminescence was directly measured using an Infinite M200 (Tecan).
# Data analysis of the luminescence measurement was carried out with GraphPad Prism 5. Therefore the measured luminescence values of each plate were first corrected on the base of the respective average of forskolin stimulation. Afterwards they were normalized to [G^14]ADM(14-52) which was used as standard peptide in every assay. After correction and normalization data was analysed using non-linear regression giving dose-response curves for each tested ligand.
# T1 sequence (Q16602 23-461): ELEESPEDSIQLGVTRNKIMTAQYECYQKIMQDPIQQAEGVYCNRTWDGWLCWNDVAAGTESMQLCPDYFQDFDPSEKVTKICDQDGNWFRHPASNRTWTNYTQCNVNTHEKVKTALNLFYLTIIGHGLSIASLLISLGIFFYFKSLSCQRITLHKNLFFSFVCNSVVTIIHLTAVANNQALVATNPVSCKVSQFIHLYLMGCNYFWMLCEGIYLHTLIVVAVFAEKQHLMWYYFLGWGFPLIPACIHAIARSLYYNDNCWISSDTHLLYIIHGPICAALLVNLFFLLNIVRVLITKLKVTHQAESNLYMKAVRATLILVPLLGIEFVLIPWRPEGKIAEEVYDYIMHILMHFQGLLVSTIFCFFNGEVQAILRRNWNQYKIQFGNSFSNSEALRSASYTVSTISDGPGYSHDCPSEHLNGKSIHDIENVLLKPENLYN
# T1 sequence (O60895 43-175): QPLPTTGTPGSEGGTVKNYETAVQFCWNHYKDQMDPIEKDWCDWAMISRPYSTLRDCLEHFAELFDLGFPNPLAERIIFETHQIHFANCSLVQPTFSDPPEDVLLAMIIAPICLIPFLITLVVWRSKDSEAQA
row,Structure (SMILES),EC50
1,"CC[C@H](C)[C@H](NC(=O)[C@H](CCC(N)=O)NC(=O)[C@H](Cc1c[nH]cn1)NC(=O)[C@H](C)NC(=O)[C@H](CC(C)C)NC(=O)[C@H](CCCCN)NC(=O)[C@H](CCC(N)=O)NC(=O)[C@@H](NC(=O)[C@@H](NC(=O)[C@@H]1CCSC[C@H](NC(=O)CNC(=O)CN)C(=O)N[C@@H](CCCNC(=N)N)C(=O)N[C@@H](Cc2ccccc2)C(=O)NCC(=O)N[C@@H]([C@@H](C)O)C(=O)N1)[C@@H](C)O)C(C)C)C(=O)N[C@@H](Cc1ccc(O)cc1)C(=O)N[C@@H](CCC(N)=O)C(=O)N[C@@H](Cc1ccccc1)C(=O)N[C@H](C(=O)N[C@@H](CC(=O)O)C(=O)N[C@@H](CCCCN)C(=O)N[C@@H](CC(=O)O)C(=O)N[C@@H](CCCCN)C(=O)N[C@@H](CC(=O)O)C(=O)N[C@@H](CC(N)=O)C(=O)N[C@H](C(=O)N[C@@H](C)C(=O)N1CCC[C@H]1C(=O)N[C@@H](CCCNC(=N)N)C(=O)N[C@@H](CO)C(=O)N[C@@H](CCCCN)C(=O)N[C@H](C(=O)N[C@@H](CO)C(=O)N1CCC[C@H]1C(=O)N[C@@H](CCC(N)=O)C(=O)NCC(=O)N[C@@H](Cc1ccc(O)cc1)C(N)=O)[C@@H](C)CC)C(C)C)[C@@H](C)O [Example 15, ((4S,7S,13S,16S,19R)-19-(2-(2-aminoacetamido)acetamido)-13-benzyl-16-(3-guanidinopropyl)-7-((R)-1-hydroxyethyl)-6,9,12,15,18-pentaoxo-1-thia-5,8,11,14,17-pentaazacycloicosane-4-carbonyl)-L-threonyl-ADM(22-52)] (H-GGCRFGT[Abu(4-yl)]TVQKLAHQIYQFTDKDKDNVAPRSKISPQGY-NH2; thioether 3-8)",3.3 nM
2,"CC[C@H](C)[C@H](NC(=O)[C@H](CCC(N)=O)NC(=O)[C@H](Cc1c[nH]cn1)NC(=O)[C@H](C)NC(=O)[C@H](CC(C)C)NC(=O)[C@H](CCCCN)NC(=O)[C@H](CCC(N)=O)NC(=O)[C@@H](NC(=O)[C@@H](NC(=O)[C@@H]1CSCC[C@H](NC(=O)CNC(=O)CN)C(=O)N[C@@H](CCCNC(=N)N)C(=O)N[C@@H](Cc2ccccc2)C(=O)NCC(=O)N[C@@H]([C@@H](C)O)C(=O)N1)[C@@H](C)O)C(C)C)C(=O)N[C@@H](Cc1ccc(O)cc1)C(=O)N[C@@H](CCC(N)=O)C(=O)N[C@@H](Cc1ccccc1)C(=O)N[C@H](C(=O)N[C@@H](CC(=O)O)C(=O)N[C@@H](CCCCN)C(=O)N[C@@H](CC(=O)O)C(=O)N[C@@H](CCCCN)C(=O)N[C@@H](CC(=O)O)C(=O)N[C@@H](CC(N)=O)C(=O)N[C@H](C(=O)N[C@@H](C)C(=O)N1CCC[C@H]1C(=O)N[C@@H](CCCNC(=N)N)C(=O)N[C@@H](CO)C(=O)N[C@@H](CCCCN)C(=O)N[C@H](C(=O)N[C@@H](CO)C(=O)N1CCC[C@H]1C(=O)N[C@@H](CCC(N)=O)C(=O)NCC(=O)N[C@@H](Cc1ccc(O)cc1)C(N)=O)[C@@H](C)CC)C(C)C)[C@@H](C)O [Example 16, ((3R,6S,12S,15S,18S)-18-(2-(2-aminoacetamido)acetamido)-12-benzyl-15-(3-guanidinopropyl)-6-((R)-1-hydroxyethyl)-5,8,11,14,17-pentaoxo-1-thia-4,7,10,13,16-pentaazacycloicosane-3-carbonyl)-L-threonyl-ADM(22-52)] (H-GG[Abu(4-yl)]RFGTCTVQKLAHQIYQFTDKDKDNVAPRSKISPQGY-NH2; thioether 3-8)",6.8 nM
3,"CCCCCCCCCCCCCCCC(=O)NCCCC[C@H](N)C(=O)NCC(=O)N[C@H]1CNC(=O)CC[C@@H](C(=O)N[C@H](C(=O)N[C@H](C(=O)N[C@@H](CCC(N)=O)C(=O)N[C@@H](CCCCN)C(=O)N[C@@H](CC(C)C)C(=O)N[C@@H](C)C(=O)N[C@@H](Cc2c[nH]cn2)C(=O)N[C@@H](CCC(N)=O)C(=O)N[C@H](C(=O)N[C@@H](Cc2ccc(O)cc2)C(=O)N[C@@H](CCC(N)=O)C(=O)N[C@@H](Cc2ccccc2)C(=O)N[C@H](C(=O)N[C@@H](CC(=O)O)C(=O)N[C@@H](CCCCN)C(=O)N[C@@H](CC(=O)O)C(=O)N[C@@H](CCCCN)C(=O)N[C@@H](CC(=O)O)C(=O)N[C@@H](CC(N)=O)C(=O)N[C@H](C(=O)N[C@@H](C)C(=O)N2CCC[C@H]2C(=O)N[C@@H](CCCNC(=N)N)C(=O)N[C@@H](CO)C(=O)N[C@@H](CCCCN)C(=O)N[C@H](C(=O)N[C@@H](CO)C(=O)N2CCC[C@H]2C(=O)N[C@@H](CCC(N)=O)C(=O)NCC(=O)N[C@@H](Cc2ccc(O)cc2)C(N)=O)[C@@H](C)CC)C(C)C)[C@@H](C)O)[C@@H](C)CC)C(C)C)[C@@H](C)O)NC(=O)[C@H]([C@@H](C)O)NC(=O)CNC(=O)[C@H](Cc2ccccc2)NC(=O)[C@H](CCCNC(=N)N)NC1=O [Example 18, ((3S,9S,12S,15S,21S)-15-(2-((S)-2-amino-6-palmitamidohexanamido)acetamido)-9-benzyl-12-(3-guanidinopropyl)-3-((R)-1-hydroxyethyl)-2,5,8,11,14,18-hexaoxo-1,4,7,10,13,17-hexaazacyclohenicosane-21-carbonyl)-L-threonyl-ADM(22-52)] (H-K(Palmitoyl)G[Dap]RFGTETVQKLAHQIYQFTDKDKDNVAPRSKISPQGY-NH2; lactam 3-8)",2 nM
4,"CC[C@H](C)[C@H](NC(=O)[C@H](CCC(N)=O)NC(=O)[C@H](Cc1c[nH]cn1)NC(=O)[C@H](C)NC(=O)[C@H](CC(C)C)NC(=O)[C@H](CCCCN)NC(=O)[C@H](CCC(N)=O)NC(=O)[C@@H](NC(=O)[C@@H](NC(=O)[C@@H]1CCC(=O)NCCC[C@H](NC(=O)CNC(=O)CN)C(=O)N[C@@H](CCCNC(=N)N)C(=O)N[C@@H](Cc2ccccc2)C(=O)NCC(=O)N[C@@H]([C@@H](C)O)C(=O)N1)[C@@H](C)O)C(C)C)C(=O)N[C@@H](Cc1ccc(O)cc1)C(=O)N[C@@H](CCC(N)=O)C(=O)N[C@@H](Cc1ccccc1)C(=O)N[C@H](C(=O)N[C@@H](CC(=O)O)C(=O)N[C@@H](CCCCN)C(=O)N[C@@H](CC(=O)O)C(=O)N[C@@H](CCCCN)C(=O)N[C@@H](CC(=O)O)C(=O)N[C@@H](CC(N)=O)C(=O)N[C@H](C(=O)N[C@@H](C)C(=O)N1CCC[C@H]1C(=O)N[C@@H](CCCNC(=N)N)C(=O)N[C@@H](CO)C(=O)N[C@@H](CCCCN)C(=O)N[C@H](C(=O)N[C@@H](CO)C(=O)N1CCC[C@H]1C(=O)N[C@@H](CCC(N)=O)C(=O)NCC(=O)N[C@@H](Cc1ccc(O)cc1)C(N)=O)[C@@H](C)CC)C(C)C)[C@@H](C)O [Example 20, ((2S,5S,11S,14S,22S)-22-(2-(2-aminoacetamido)acetamido)-5-benzyl-2-(3-guanidinopropyl)-11-((R)-1-hydroxyethyl)-3,6,9,12,17,23-hexaoxo-1,4,7,10,13,18-hexaazacyclotricosane-14-carbonyl)-L-threonyl-ADM(22-52)] (H-GG[Orn]RFGTETVQKLAHQIYQFTDKDKDNVAPRSKISPQGY-NH2; lactam 3-8)",9.1 nM
